Laboratory results: the NIST ThermoML archive (doi:10.1016/j.jct.2015.09.031)

Assay: molar heat capacity at constant pressure
Details: Liquid, Flow calorimetry

CCCCCCC(=O)OCC [ethyl heptanoate]
Details	molar heat capacity at constant pressure [J/K/mol]
305.4 K, 100 kPa	318.3
305.4 K, 4040 kPa	317.7
305.4 K, 8190 kPa	317.3
305.4 K, 12090 kPa	316.8
305.5 K, 16070 kPa	316.4
315.7 K, 100 kPa	322.5
315.8 K, 4190 kPa	322
315.9 K, 8150 kPa	321.6
315.9 K, 12260 kPa	320.5
316 K, 16160 kPa	319.6
326.2 K, 16030 kPa	323.6
326.5 K, 100 kPa	326.8
326.5 K, 4140 kPa	325.9
326.6 K, 8170 kPa	325.2
326.6 K, 12110 kPa	324.3
335.3 K, 100 kPa	330.3
335.3 K, 4060 kPa	330.1
335.4 K, 8050 kPa	328.6
335.4 K, 12030 kPa	327.6
335.5 K, 16070 kPa	326.9
345.1 K, 100 kPa	334.2
345.2 K, 4070 kPa	333.5
345.6 K, 8230 kPa	332.5
345.7 K, 12160 kPa	332.2
345.7 K, 16230 kPa	330.5
354.2 K, 100 kPa	337.8
354.2 K, 4120 kPa	337.3
354.3 K, 8010 kPa	336.5
354.4 K, 12390 kPa	335.6
354.5 K, 16250 kPa	334.5
364.9 K, 100 kPa	342.1
365.3 K, 3870 kPa	341.3
365.6 K, 8320 kPa	340.3
365.7 K, 12160 kPa	339.5
365.8 K, 15950 kPa	338.3
374.8 K, 100 kPa	346.1
375 K, 3980 kPa	345.5
375.5 K, 8020 kPa	344
375.7 K, 12070 kPa	342.6
375.9 K, 16040 kPa	341.4
384 K, 100 kPa	349.8
385 K, 4020 kPa	349.1
385.4 K, 8040 kPa	347.1
385.5 K, 11880 kPa	346.1
385.7 K, 15890 kPa	345.6

CCOC(=O)/C=C/c1ccccc1 [ethyl trans-3-phenylpropenoate]
Details	molar heat capacity at constant pressure [J/K/mol]
306.7 K, 100 kPa	299.7
306.7 K, 3970 kPa	297.7
306.8 K, 7840 kPa	297.2
306.9 K, 11640 kPa	295.5
307.1 K, 15780 kPa	294.4
315.8 K, 100 kPa	302.2
315.8 K, 4120 kPa	301.9
315.9 K, 8120 kPa	300.4
316 K, 11870 kPa	299.4
316.1 K, 15790 kPa	297.4
325.2 K, 100 kPa	307.1
325.5 K, 3970 kPa	304.6
325.6 K, 8000 kPa	303
325.8 K, 11720 kPa	301.8
325.8 K, 16030 kPa	301
334.6 K, 100 kPa	311.1
334.8 K, 3970 kPa	309.5
334.9 K, 8070 kPa	308
335 K, 11750 kPa	306.6
335.1 K, 16080 kPa	303.6
345.1 K, 100 kPa	315.3
345.2 K, 3910 kPa	313.4
345.3 K, 7970 kPa	312
345.4 K, 11840 kPa	310.1
345.6 K, 15760 kPa	308.2
355.3 K, 11990 kPa	313.5
355.5 K, 16020 kPa	312.1
355.6 K, 100 kPa	320.2
355.7 K, 3930 kPa	316.6
355.8 K, 7990 kPa	315.4
366 K, 100 kPa	324.5
366.3 K, 4210 kPa	321.3
366.5 K, 8030 kPa	319.6
366.6 K, 12140 kPa	318.6
366.9 K, 16090 kPa	316.8
375.6 K, 100 kPa	328.3
375.8 K, 4120 kPa	326
375.9 K, 8030 kPa	323.8
376.2 K, 12180 kPa	321.6
376.4 K, 16170 kPa	320.4
385.6 K, 100 kPa	332.5
385.9 K, 4170 kPa	330.4
386.1 K, 8090 kPa	329.1
386.3 K, 12160 kPa	327.2
386.5 K, 16040 kPa	325.7
